We go through one compound from patent US7714014B2, “Targeting GLI proteins in human cancer by small molecules” (The Regents of the University of California, priority 2005, dated 2010).

Test [1] relates to cytosolic β-catenin in human normal skin fibroblasts (Malme-3). Put plainly: Western blot of cytosolic β-catenin. To be noted: 10 μM or 20 μM. It counts as cell-based. As for the experimental part:
[…] Protein concentrations were measured using Bio-Rad Protein Assay reagent. Whole cell lysate protein (5-20 ug) were boiled for 5 min and separated by 10-20% SDS-PAGE. Proteins were transferred to an Immobilon-P membrane (Millipore Corp., Bedford, Mass.) using semi-dry transfer cell (Bio-Rad; Benicia, Calif.). The membranes were blocked with 5% nonfat milk powder and 0.1% Tween 20 in Tris-buffer saline overnight at 4° C. and then incubated with primary antibody for 1 h at room temperature. Membranes were washed in 5% nonfat milk powder and 0.1% Tween 20 in Tris-buffer saline for three 10-min periods. Horseradish peroxidase-conjugated goat anti-rabbit or donkey anti-mouse antibodies were used as secondary antibodies. Proteins were visualized with chemiluminescence luminol reagents (Santa Cruz Bio-technology). Anti-Dvl-3, and anti-Survivin, antibodies were from Santa Cruz Biotechnology (Santa Cruz, Calif.). Anti-Caspase3 antibody was from Oncogene (Cambridge, Mass.). Anti-β-Actin antibody was from Sigrna-Aldrich Corp. (St. Louis, Mo.). Anti-β-catenin antibody was from Transduction Laboratories (Lexington, Ky.). Anti-Cytochrome c antibody was from BD Biosciences (San Diego, Calif.). For detecting alteration of β-catenin cytosolic extracts were prepared and examined as described previously in the publications from our lab. […]
(In general: A western blot detects proteins with antibodies after separation by electrophoresis.)

A further test concerns NSCLC A549 tumor. Put plainly: Mouse Xenograft Model (NSCLC A549). It is filed as in vivo. To be noted: 15 mg/kg daily 2×6 days then 30 mg/kg daily 1×6 days i.p.; 43 days after inoculation. As for the experimental part: The small molecule compound FN1-8 was tested in vivo in the mouse xenograft model bearing human cancer cells. Briefly, female athymic nude mice strain NCRNU-M (5-10 weeks old, 20-25 grams in weight; Taconic, Germantown, N.Y.) was maintained in pathogen-free conditions. Three human cancer cell lines: NSCLC H460, melanoma LOX, (both showing Gli3 activation), and colon cancer HT29 (no Gli3 activation, as a negative control), were used. Ten mice were used in each group and injected s.c. with 3×10^6 cancer cells in the dorsal area in a volume of 100 μl. After inoculation, human cancer cells were allowed to grow in mice for 7 days to become visible tumor nodules. Animals were then injected with small molecule compound FN1-8 at a dose of 50 mg/kg body weight (1 mg/mouse per day). DMSO alone was used as control. The compounds and controls were adjusted in 40 ul volume for i.p. injection in the abdomens of the mice. One mouse was sacrificed within 1 hour after the compound injection (after 6 injections) and its blood was collected. […] Tumor size was measured every three days, and tumor volumes were calculated using width (x) and length (y) (x^2y/2, where x<y). […]
In vivo efficacy study ofFN1-8 in Mouse Xenograft Model (NSCLC A549) was also examined. […] 43 days after the initial tumor inoculation, tumors were dissected from the mice of each group and their weights were measured using a scale. […]

Test [2] deals with NSCLC cell lines H1299, A549, H460 and colon cancer cell line SW480. The experiment in a line: Cell survival assay (crystal violet), screening. It counts as cell-based, human. Conditions: 50 and 100 μM, 3 days, all cancer cell lines tested. As for the experimental part: Typically, the small molecule compounds of the present invention were dissolved in DMSO at a concentration of 30 mM. The small molecule compounds were then tested under cell culture conditions at different concentrations ranging from 0, 10, 30, 50, to 100 uM. To determine cell survival after treatment, the cells were incubated with the small molecule compounds in 6-well plates for about 3 days. After removal of the cell culture medium, 1-ml of 0.5% crystal violet solution (prepared in 20% ethanol and 20% methanol) was added to stain the cells for 5 min. Then the crystal violet solution was rinsed clean with tap water. Cell survival was estimated based on the density of crystal stained plates.
Cancer cell lines were plated in 6-well plates as described, and incubated with 50, and 100 μM of each compound (stocks were dissolved in DMSO at 30 mM) for 3 days. […] Apoptosis analysis was also carried out by using flow cytometry and the results were consistent (data not shown). Therefore, using the rational design design-screen approach described herein, additional small molecule compound, FN1-8, inhibiting GLI3 transcription activation domain (TAF-binding domain) was identified.

Consider `O=C(NCCc1ccc(O)cc1)C1C(c2ccccc2)=NN(c2ccccc2)C1c1ccccc1` (stereo not drawn) [FN1-8, N-(2-(4-Hydroxyphenyl)ethyl)-1,3,5-triphenyl-4,5-dihydro-pyrazole-4-carboxyamide], for which the “cytosolic β-catenin level” value in test [1] is “no noticeable change”. Moreover, the tumor weight entry with NSCLC A549 tumor is recorded as “decreased”. For the same compound, the cell killing result in test [2] is “Dramatic cell killing”.
